We go through 11 compounds from patent US5175283A, “Azetidin-2-one derivatives as serine protease inhibitors” (Bristol-Myers Squibb Company, priority 1992, dated 1992).

The target in experiment [1] is T1, human α-thrombin (Homo sapiens, UniProt P00734).
T1 construct: purified human α-thrombin dissolved in thrombin assay buffer
The experiment in a line: Enzyme assay for the inhibition of thrombin (s-2238 substrate). Type of experiment: biochemical. The note with it: for IC50: 3 min incubation of drug with enzyme, room temperature; for Thrombin k2 /ki (second order rate constant for inactivation of the enzyme) / Thrombin k2 /ki (second order rate constant), cells with symbol *: human α-thrombin; for Thrombin k2 /ki (second order rate constant for inactivation of the enzyme): s-2238, pH 7.4, room temperature; for Thrombin k2 /ki (second order rate constant), cells with symbol *: * = not measurable. On the set-up: key to Thrombin k2 /ki (second order rate constant), cells with symbol *: *: not measurable. The procedure: 1. Enzyme Assays for the Inhibition of Thrombin The following reagents were used in these assays: Thrombin assay buffer: 145 mM NaCl, 5 mM KCl, 30 mM N-2-hydroxyethyl piperazine-N'-2-ethanesulfonic acid, pH 7.4, 1 mg/ml polyethylene glycol (PEG-8000). 3 mM D-Phe-Pip-Arg-p-nitroanilide (s-2238) in H2 O. 3 U/ml purified human α-thrombin dissolved in thrombin assay buffer. Inhibitors to be tested were dissolved in H2 O, methanol, or DMSO just prior to use. Assay Procedure To each well in a 96-well microtiter plate, 270 μl of assay buffer was added. Human α-thrombin (10 μl of 3 U/ml) was added, then 10 μl of inhibitor were added and mixed. The samples were incubated at room temperature for a defined period of time (3 min for initial IC50 determinations). The enzymic reaction was started with 10 μl of 3 mM s-2238 substrate and continued at room temperature. The change in optical density was measured at 405 nm. A kinetic microplate reader (Molecular Devices Corporation Vmax) was used to measure the change in optical density over time. Results are reported in Table 1 as IC50 values, i.e., the drug concentration in mole/liter which caused 50% inhibition of the enzyme activity (after incubation of the drug with the enzyme for 3 min). Alternatively, results are also reported in Table 1 expressed as k2 /ki which is the second order rate constant in per mole per minute for inactivation time of the enzyme [Kitz, et al., J. Biol. Chem., 237, 3245 (1962)].

For experiment [2], the target named is T1, human α-thrombin. Put plainly: Concentration required for doubling thrombin clotting time in human plasma. Type of experiment: biochemical. The note with it: human citrated plasma, 10 U/ml human thrombin; read-out: ED50, drug concentration required to double clotting time. On the procedure: Procedure for Determining the Concentration Required for Doubling Thrombin Clotting Time--Clotting Time Assays The following reagents were used in these assays: Owren's Veronal Buffer: 125 mM NaCl, 28.4 mM sodium barbital, pH 7.35. Human citrated plasma obtained from human volunteers or citrated plasma obtained from IP-dosed animals (prepared as described below). 10 NIH Units/ml human α-thrombin in thrombin buffer for use with human plasma. […] The blood was centrifuged at […] (480×g) for 15 min at room temperature (using a Sorvall RT 6000B centrifuge). The plasma was removed, pooled, and aliquoted into small tubes which were stored frozen for later use. Clotting Time Measurement Clotting times were determined by pipetting 0.1 ml of Owren's buffer (pre-warmed 37° C.) and 0.1 ml of human or rat plasma into yellow sample cuvettes. For studies with human plasma 10 U/ml human thrombin (10 ml) was placed in the reservoir assembly station of the MLA 700. (Medical Laboratory Automation, Electra 700 Reservoir Assembly). For rat studies, the human thrombin concentration was 25 U/ml. The cuvettes were vortexed and then placed on the MLA 700 sample wheel. The coagulation timer (MLA 700) automatically dispenses 0.1 ml human thrombin into the sample in each cuvette. Detection of the fibrin clot was determined optically by the MLA 700. Studies were performed to determine the concentration of drug which caused a doubling of the clotting time in human plasma. From standard curves of thrombin activity added to the sample versus the clotting time, the concentration of drug which caused a doubling of the thrombin clotting time corresponded to inhibition of approximately 1/2 of the added thrombin clotting activity. Results are reported in Table 1 as ED50 values, i.e., the drug concentration required to double clotting time.

The target of experiment [3] is T2, bovine pancreatic trypsin (Bos taurus, UniProt P00760).
T2 construct: purified bovine pancreatic trypsin dissolved in trypsin assay buffer
T2 sequence (P00760 24-246): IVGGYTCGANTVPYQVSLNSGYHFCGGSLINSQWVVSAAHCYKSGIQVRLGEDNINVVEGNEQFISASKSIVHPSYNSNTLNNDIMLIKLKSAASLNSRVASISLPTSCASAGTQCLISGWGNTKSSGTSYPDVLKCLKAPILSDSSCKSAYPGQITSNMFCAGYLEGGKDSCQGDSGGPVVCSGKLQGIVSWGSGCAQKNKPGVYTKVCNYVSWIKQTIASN
Put plainly: Enzyme assay for the inhibition of trypsin (Z-Val-Gly-Arg-pNA substrate). The note with it: 3 min incubation of drug with enzyme, room temperature, pH 8.0; read-out: Trypsin IC50. Type of experiment: biochemical. The procedure: 2. Enzyme Assays for the Inhibition of Trypsin
(§1) The following reagents were used in these assays:
Trypsin assay buffer: 2 mM CaCl2, 50 mM Tris/Cl pH 8.0.
3 mM Z-Val-Gly-Arg-pNA (Chromzyme TRy) dissolved in H2 O.
6 μg/ml of purified bovine pancreatic trypsin dissolved in trypsin assay buffer.
Inhibitors to be tested were dissolved in H2 O, methanol or DMSO just prior to use.
To each well in a 96-well microtiter plate, 270 μl of assay buffer was added. Bovine trypsin (10 μl of 6 μg/ml) was added. Inhibitor (10 μl ) was added, mixed, and then incubated at room temperature for 3 min. The enzymic reaction was started with 10 μl of 3 mM Z-Val-Gly-Arg-pNA substrate. The change in optical density was measured at 405 nm at room temperature. A kinetic microplate reader (Molecular Devices Corporation Vmax) was used to measure the change in optical density over time.
Results are reported in Table 1 as IC50 values, i.e., the drug concentration in mole/liter which caused 50% inhibition of the enzyme activity (after incubation of the drug with the enzyme for 3 min).

For experiment [4], the system named is Thrombin Induced Clotting Time. Put plainly: Thrombin induced clotting time ex vivo in plasma of i.p. dosed rats. The note with it: rat, 50 mg/kg i.p. On the procedure:
Procedure for Determining the Concentration Required for Doubling Thrombin Clotting Time--Clotting Time Assays
as §1
Owren's Veronal Buffer: 125 mM NaCl, 28.4 mM sodium barbital, pH 7.35.
Human citrated plasma obtained from human volunteers or citrated plasma obtained from IP-dosed animals (prepared as described below).
25 NIH Units/ml human α-thrombin in thrombin buffer for use with rat plasma.
Test compound was prepared just prior to dosing. Routinely the drugs are dissolved in water. Animals were dosed by i.p. injection.
After the appropriate time period, the animals were ether-anesthetized, and blood was drawn by cardiac puncture using 333 μl of 3.8% sodium citrate per 3 ml blood. After all of the samples were obtained, the tubes were centrifuged at 1,500 rpm for 15 min as described for the human blood samples.
Clotting Time Measurement
Clotting times were determined by pipetting 0.1 ml of Owren's buffer (pre-warmed 37° C.) and 0.1 ml of human or rat plasma into yellow sample cuvettes. For studies with human plasma 10 U/ml human thrombin (10 ml) was placed in the reservoir assembly station of the MLA 700. (Medical Laboratory Automation, Electra 700 Reservoir Assembly). For rat studies, the human thrombin concentration was 25 U/ml. The cuvettes were vortexed and then placed on the MLA 700 sample wheel. The coagulation timer (MLA 700) automatically dispenses 0.1 ml human thrombin into the sample in each cuvette. Detection of the fibrin clot was determined optically by the MLA 700.
In separate studies, two compounds, Compound XIX and Compound XI, were dosed 50 mg/kg I.P. to three rats in each study group. […] "Term" indicates "terminated sample" where a clot was unable to form after approximately 99 seconds. When this occurred, the animal plasma was diluted 1: 1 with control rat plasma and the sample tested again. If need, the animal plasma was diluted 1:4 and tested again.

The mark [5] stands for this setting: 0.5 hr. post dose, undiluted plasma, per animal.

For orientation: IC50 means the concentration that inhibits the measured activity by half.

Structures are written as SMILES. Several values for one entry are separate records, joined by “and”; a condition that tells them apart may be missing. Equal values may be shown once. Where a name gives a salt, the structure may show the parent alone.

Take `CN(C)c1cccc2c(S(=O)(=O)N3C(=O)[C@@H](CCCNC(=N)N)[C@@H]3C(=O)N3CCCCC3)cccc12` (relative stereo) [XII, trans-4-(1-Piperidinocarbonyl)-3-guanidinooropyl-1-[(5-dimethylamino)-1-naphthalenesulfonyl]-2-azetidinone hydrochloride salt]: on human α-thrombin [1], half-maximal inhibition (IC50) required 0.01 µM and the “Thrombin k2 /ki (second order rate constant for inactivation of the enzyme)” value was 2.8 × 10^6 m^-1 min^-1. Moreover, on human α-thrombin [2], the IC (2-fold clotting time) is reported as 30 µM. In addition, the IC50 in experiment [3] stood at 0.014 µM.
As for `CC(=O)N1C(=O)[C@H](CCCNC(=N)N)[C@@H]1C(=O)N1CCCCC1` (relative stereo) [XXIII, cis-4-(1-Piperidinocarbonyl)-3-guanidinopropyl-1-acetyl-2-azetidinone hydrochloride salt], at human α-thrombin [1], the “Thrombin k2 /ki (second order rate constant for inactivation of the enzyme)” value was 4.3 × 10^4 m^-1 min^-1. Besides, the IC (2-fold clotting time) at human α-thrombin [2] came to 20 µM.
In the case of `CN(C)c1cccc2c(S(=O)(=O)N3CC(CCCNC(=N)N)C3=O)cccc12` (centres unmarked) [IX, 3-Guanidinopropyl-1-[(5-dimethylamino)-1-naphthanesulfonyl)]-2-azetidinone hydrochloride salt], on human α-thrombin [1], the IC50 stood at 1 µM and the “Thrombin k2 /ki (second order rate constant), cells with symbol *” value is given as “*”. For the same compound, the IC (2-fold clotting time) at human α-thrombin [2] stood at 30 µM.
In turn, `CC(=O)OC1C(CCCNC(=N)N)C(=O)N1C(=O)C(C)(C)C` (centres unmarked) [XXI, 4-Acetyloxy-3-guanidinopropyl-1-t-butylcarbonyl-2-azetidinone hydrochloride salt] had an IC50 on human α-thrombin [1] of 0.074 µM.
With `COC(=O)[C@H]1[C@H](CCCNC(=N)N)C(=O)N1S(C)(=O)=O.Cl` (relative stereo) [IV, trans-4-Methoxycarbonyl-3-(guanidinopropyl)-1-methylsulfonyl-2-azetidinone hydrochloride salt], at human α-thrombin [1], half-maximal inhibition (IC50) required 0.02 µM and the “Thrombin k2 /ki (second order rate constant for inactivation of the enzyme)” value is listed as 1.5 × 10^6 m^-1 min^-1. The IC50 in experiment [3] is 0.07 µM.
With `CC(=O)N1C(=O)C(CCCNC(=N)N)C1C(=O)N1CCC[C@H]1C(=O)O` (stereo partly drawn) [XVIII, trans-4-[(2-Carboxy-1-pyrrolidinyl)carbonyl]-3-(3-guanidino)-procyl-1-acetyl-2-azetidinone hydrochloride salt], at human α-thrombin [1], inhibition was half-maximal at 0.049 µM (IC50) and the “Thrombin k2 /ki (second order rate constant for inactivation of the enzyme)” value is listed as 4.3 × 10^6 m^-1 min^-1. Moreover, the IC (2-fold clotting time) on human α-thrombin [2] came to 1.25 µM.
Consider `CCS(=O)(=O)[C@H]1[C@H](CCCNC(=N)N)C(=O)N1C(C)=O` (relative stereo) [Compound X, trans-4-Ethylsulfonyl-3-quanidinopropyl-1-acetyl-2-azetidinone hydrochloride salt], for which the “Thrombin k2 /ki (second order rate constant for inactivation of the enzyme)” value on human α-thrombin [1] is 3.0 × 10^6 m^-1 min^-1.
Consider `CC(=O)OC1C(CCCNC(=N)N)C(=O)N1C(=O)c1ccccc1` (centres unmarked) [XXII, 4-Acetyloxy-3-guanidinooropyl-1-phenylcarbonyl-2-azetidinone hydrochloride salt], for which, at human α-thrombin [1], the IC50 worked out at 0.035 µM and the “Thrombin k2 /ki (second order rate constant), cells with symbol *” value is on record as “*”. The IC (2-fold clotting time) at human α-thrombin [2] is given as 10.0 µM.
Regarding `COC(=O)[C@H]1[C@H](CCCCNC(=N)N)C(=O)N1S(=O)(=O)c1cccc2c(N(C)C)cccc12` (relative stereo) [XVII, trans-4-Methoxycarbonyl-3-(4-guanidinobutyl)-1-[(5-dimethylamino)-1-naphthalenesulfonyl]-2-azetidinone hydrochloride salt], at human α-thrombin [1], the “Thrombin k2 /ki (second order rate constant for inactivation of the enzyme)” value is reported as 3.7 × 10^5 m^-1 min^-1. For the same compound, at human α-thrombin [2], the IC (2-fold clotting time) worked out at 50 µM.
As for `CC(=O)N1C(=O)[C@@H](CCCNC(=N)N)[C@@H]1C(=O)NCC(=O)O` (relative stereo) [Compound XIX, 4-[[(2-Hydroxy-2-oxoethyl)amino]carbonyl]-3-(3-guanidinopropyl)-1-acetyl-2-azetidinone hydrochloride salt], at human α-thrombin [1], the IC50 was determined as 0.012 µM and the “Thrombin k2 /ki (second order rate constant for inactivation of the enzyme)” value is reported as 2.0 × 10^7 m^-1 min^-1. In addition, the IC (2-fold clotting time) at human α-thrombin [2] was 0.43 µM. For the same compound, the “Thrombin Induced Clotting Time (1:1 Control Plasma)” value in experiment [4] (0.5 hr. post dose, plasma diluted 1:1 with control rat plasma, hydrochloride salt, 50 mg/kg, in s) is 14.4 and 17.3. Also, in experiment [4] (setting [5]), the “Thrombin Induced Clotting Time” value amounted to 45.2 s and the “Thrombin Induced Clotting Time, terminated samples” value was “term. ("terminated sample" where a clot was unable to form after approximately 99 seconds)”. Also, the “Thrombin Induced Clotting Time” value in experiment [4] (2 hr. post dose, undiluted plasma, per animal, hydrochloride salt, 50 mg/kg) is 12.9 s and 13.3 s and 14.4 s. Besides, in experiment [4] (5 hr. post dose, undiluted plasma, per animal, hydrochloride salt, 50 mg/kg), the “Thrombin Induced Clotting Time” value was 13.5 s and 13.6 s and 13.3 s. The “Clotting time ex vivo, result in words” value in experiment [4] (three rats per group) is reported as “prolonged clotting time”.
The compound `CC(=O)N1CC(CCCNC(=N)N)C1=O` (centres unmarked) [VIII, 3-Guanidinopropyl-1-acetyl-2-azetidinone hydrochloride salt] returned an IC50 against human α-thrombin [1] of 0.1 µM.
